Measurements from article PMC11369887 (RSC Advances, 2024).
Like-named read-outs stand apart in the source and are kept apart here.

Columns and labels:
[1] = system: leukemia (L-SR) cell line; experiment: MTT cytotoxicity assay, L-SR; conditions: 48 h, read-out: Cytotoxicity IC50 L-SR
Procedure: (§2) The newly synthesized compounds were evaluated for their in vitro growth inhibition of three human tumor cell lines representing different tumor types, namely, breast adenocarcinoma (MCF-7), liver hepatocellular carcinoma (Hep3B) and leukemia-SR. […] The breast tumor cell line (MCF-7), hepatic tumor cell line (Hep3B) and leukemia-SR cell line were obtained from American Type Culture Collection. The cells were cultured using Dulbecco's modified Eagle's medium (DMEM) (Invitrogen/Life Technologies) supplemented with 10% fetal bovine serum (FBS) (Hyclone), 10 μg mL^−1 of insulin (Sigma), and 1% penicillin–streptomycin. […] For 24 hours before to the MTT experiment, plate cells (densities of 1.2–1.8 × 10 000 cells per well) were layered in a 96-well plate containing 100 μL of the tested chemical per well and 100 μL of full growth media.
(§3) The culture medium was transferred to a centrifuge tube. […] Then 2.0 to 3.0 mL of Trypsin EDTA solution was added to the flask, and the cells were observed using an inverted microscope until the cell layer became dispersed (usually within 5–15 min). After that, 6.0 to 8.0 mL of complete growth medium was added and the cells were aspirated by gently pipetting. The cell suspension was transferred to the centrifuge tube with the medium and cells from step 1 and centrifuged at approximately 125 g for 5–10 min. The supernatant was discarded. The cell pellet was re-suspended in a fresh growth medium. Appropriate aliquots of the cell suspension were added to new culture vessels.
(§4) For the best results, the cells in the log phase of growth should be employed and the final cell number should not exceed 10^6 cells per cm^2. Each test should include a blank containing a complete medium without cells. Cultures from the incubator were transferred into a laminar flow hood or other sterile work area. […] Reconstituted MTT was added in an amount equal to 10% of the culture medium volume. Cultures were returned to the incubator for 2–4 h depending on the cell type and maximum cell density. An incubation period of 2 h is generally adequate but may be lengthened for low cell densities or cells with lower metabolic activity. The incubation times should be consistent when making comparisons. […] Occasionally, especially in dense cultures, pipetting up and down may be required to completely dissolve the MTT formazan crystals. The absorbance was spectrophotometrically measured at a wavelength of 570 nm. The background absorbance of multiwell plates was measured at 690 nm and subtracted from the 450 nm measurement. Tests performed in multiwell plates might be read using an appropriate type of plate reader or the contents of individual wells might be transferred to appropriate size cuvettes for spectrophotometric measurement.

[2] = system: human liver cancer (Hep3B) cell line; experiment: MTT cytotoxicity assay, Hep3B; conditions: 48 h, read-out: Cytotoxicity IC50 Hep3B
Procedure: as §2, §3, §4

[3] = system: human breast cancer (MCF-7) cell line; experiment: MTT cytotoxicity assay, MCF-7; conditions: read-out: Cytotoxicity IC50 MCF-7
Procedure: as §2, §3, §4

in vitro = conditions: human, THLE2 normal liver cells
Procedure: The following normal cell lines were selected: normal breast MCF-10a, normal liver THLE2 and normal lymphocyte PCS-800-011. […] Moreover, the toxic effect of representative target compounds was evaluated on normal breast (MCF10a), normal liver (THLE2) and normal lymphocyte (PCS-800-011) cell lines using an MTT assay. […] The cells were cultured using Dulbecco's modified Eagle's medium (DMEM) (Invitrogen/Life Technologies) supplemented with 10% fetal bovine serum (FBS) (Hyclone), 10 μg mL^−1 of insulin (Sigma), and 1% penicillin–streptomycin. All chemicals and reagents were purchased from Sigma-Aldrich or Invitrogen. For 24 hours before to the MTT experiment, plate cells (densities of 1.2–1.8 × 10 000 cells per well) were layered in a 96-well plate containing 100 μL of the tested chemical per well and 100 μL of full growth media.
as §3, §4

[4] = target: T1, human DNA topoisomerase II beta (Topo2β) (Homo sapiens, UniProt Q02880); experiment: Topo2β polymerase inhibition assay (ELISA), Hep3B; assay type: cell-based; parameters: concentration or dose not given beside the values; conditions: against Hep3B cell line
Procedure: (§1) This assay was employed to predict the inhibitory effects of novel compounds on Topo2β. […] The melting points were determined using a Stuart apparatus, and the values given are uncorrected. IR spectra were recorded using a Shimadzu IR 4000s spectrophotometer (KBr, cm^−1) at the College of Pharmaceutical Sciences and Drug Manufacturing, Misr University for Science and Technology, Egypt. ^1H NMR spectra were recorded using a Bruker 400 MHz (Bruker Corp., Billerica, MA, USA) spectrophotometer, Faculty of Pharmacy, Cairo University, Cairo, Egypt and the Centre of Drug Discovery Research & Development, Faculty of Pharmacy, Ain shams University, and a Jeol 500 MHz spectrophotometer at the National Research Center. Chemical shifts were recorded in ppm on a δ scale, coupling constants (J) were given in Hz and peak multiplicities are designed as follows: s, singlet; d, doublet; t, triplet; m, multiplet. ^13C NMR spectra were recorded using a Bruker 100 MHz spectrophotometer, Faculty of Pharmacy, Cairo University and the Centre of Drug Discovery Research & Development, Faculty of Pharmacy, Ain shams University, and a Jeol 500 MHz spectrophotometer at the National Research Center. Chemical shifts were recorded in ppm on a δ scale. Microanalyses for C, H, and N were carried out at the Regional Center for Mycology and Biotechnology, Faculty of Pharmacy, Al-Azhar University. C, H, and N analysis values were accepted within the range of ± 0.4 of the calculated percentages. […] The used eluting system was methanol : hexane with a ratio of 9.5/0.5 respectively. Scientific microwave MAS-II was used under 300 W microwave irradiation, operating at 80 °C. The evaluation of the cytotoxic activity was performed at VACSERA, Giza, Egypt, using MCF-7, Hep3B and leukemia SR cell lines. Enzyme assay, cell cycle analysis, apoptosis and caspase-3 assay were carried out at VACSERA, Giza, Egypt using an SEB870Hu 96 Tests Enzyme-linked Immunosorbent Assay Kit for Topoisomerase II Beta.
This assay employs a quantitative sandwich enzyme immunoassay technique. […] Antibody specific for Topo2β was pre-coated onto a microplate. Standards and samples were pipetted into the wells and any Topo2β present was bound by the immobilized antibody. After removing any unbound substances, a biotin-conjugated antibody specific for Topo2β was added to the wells. After washing, avidin-conjugated Horseradish Peroxidase (HP) was added to the wells. Following washing to remove any unbound avidin–enzyme reagent, a substrate solution was added to the wells and color develops in proportion to the amount of Topo2β bound in the initial step. The color development was stopped, and the intensity of the color was measured. […] The sensitivity of this assay or lower limit of detection (LLD) is defined as the lowest protein concentration that could be differentiated from zero. The mean OD value of 20 replicates of the zero standard was determined and added to their three standard deviations.[64]

[5] = target: T1, human DNA topoisomerase II beta (Topo2β); experiment: Topo2β polymerase inhibition assay (ELISA), L-SR; assay type: cell-based; parameters: endogenous in cells; host or cells: MCF-7 (A4), Hep3B (A5), L-SR (A6) human cancer cell lines; conditions: against L-SR cell line
Procedure: as §1
This assay employs a quantitative sandwich enzyme immunoassay technique. […] Antibody specific for Topo2β was pre-coated onto a microplate. Standards and samples were pipetted into the wells and any Topo2β present was bound by the immobilized antibody. After removing any unbound substances, a biotin-conjugated antibody specific for Topo2β was added to the wells. After washing, avidin-conjugated Horseradish Peroxidase (HP) was added to the wells. […] The color development was stopped, and the intensity of the color was measured. […] The mean OD value of 20 replicates of the zero standard was determined and added to their three standard deviations.[64]

[6] = MCF-7 cell line, MTT assay, 48 h

T1 sequence (Q02880 whole entry): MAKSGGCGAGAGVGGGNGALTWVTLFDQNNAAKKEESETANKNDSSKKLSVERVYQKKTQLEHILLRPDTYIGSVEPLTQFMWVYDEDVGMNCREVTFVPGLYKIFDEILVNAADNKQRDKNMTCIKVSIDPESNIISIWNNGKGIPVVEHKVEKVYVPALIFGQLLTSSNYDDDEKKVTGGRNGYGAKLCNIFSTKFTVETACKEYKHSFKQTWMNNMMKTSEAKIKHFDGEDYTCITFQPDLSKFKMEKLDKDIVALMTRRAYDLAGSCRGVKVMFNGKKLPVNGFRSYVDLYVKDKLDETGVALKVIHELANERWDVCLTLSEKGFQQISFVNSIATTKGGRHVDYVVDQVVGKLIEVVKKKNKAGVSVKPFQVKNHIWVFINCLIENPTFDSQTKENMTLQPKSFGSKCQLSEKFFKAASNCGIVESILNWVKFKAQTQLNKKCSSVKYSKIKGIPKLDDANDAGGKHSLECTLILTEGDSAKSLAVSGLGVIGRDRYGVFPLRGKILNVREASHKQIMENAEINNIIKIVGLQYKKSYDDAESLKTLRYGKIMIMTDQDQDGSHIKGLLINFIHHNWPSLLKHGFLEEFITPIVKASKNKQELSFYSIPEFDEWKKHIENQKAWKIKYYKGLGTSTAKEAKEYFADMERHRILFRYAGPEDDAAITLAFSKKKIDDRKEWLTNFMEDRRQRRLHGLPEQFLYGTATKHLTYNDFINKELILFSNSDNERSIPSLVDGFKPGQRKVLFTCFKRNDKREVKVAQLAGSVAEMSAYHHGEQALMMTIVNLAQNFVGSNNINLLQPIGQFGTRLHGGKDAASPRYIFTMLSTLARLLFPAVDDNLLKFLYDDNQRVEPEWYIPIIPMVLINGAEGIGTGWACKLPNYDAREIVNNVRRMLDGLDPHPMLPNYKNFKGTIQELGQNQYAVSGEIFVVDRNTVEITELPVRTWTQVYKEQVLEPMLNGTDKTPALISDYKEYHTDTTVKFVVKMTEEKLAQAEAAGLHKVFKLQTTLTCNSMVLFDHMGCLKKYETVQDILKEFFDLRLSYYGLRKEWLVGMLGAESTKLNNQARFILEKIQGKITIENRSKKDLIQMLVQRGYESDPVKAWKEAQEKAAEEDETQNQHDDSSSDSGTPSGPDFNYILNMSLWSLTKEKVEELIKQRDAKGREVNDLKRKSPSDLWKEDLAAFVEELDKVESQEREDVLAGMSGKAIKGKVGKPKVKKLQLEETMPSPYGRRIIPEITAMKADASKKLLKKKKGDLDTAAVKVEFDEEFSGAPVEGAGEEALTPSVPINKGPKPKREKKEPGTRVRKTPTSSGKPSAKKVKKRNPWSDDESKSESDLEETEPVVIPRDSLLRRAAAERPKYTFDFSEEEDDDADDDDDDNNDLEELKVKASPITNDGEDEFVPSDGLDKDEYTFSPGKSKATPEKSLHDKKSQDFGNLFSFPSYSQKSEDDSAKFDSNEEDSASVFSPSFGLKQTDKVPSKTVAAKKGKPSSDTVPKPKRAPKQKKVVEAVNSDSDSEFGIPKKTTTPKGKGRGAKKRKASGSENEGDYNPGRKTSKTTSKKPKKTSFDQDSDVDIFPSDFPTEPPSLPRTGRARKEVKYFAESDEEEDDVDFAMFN

CC1COc2c(N3CCN(C)CC3)c(F)cc3c(=O)c(C(=O)N4CCOCC4)cn1c23 (centres unmarked) [Compound 13b, 9-Fluoro-3-methyl-10-(4-methylpiperazin-1-yl)-6-((morpholin-4-yl)carbonyl)-2,3-dihydro-7H-[1,4]oxazino[2,3,4-ij]quinolin-7-one]
melting point: 235 to 237 °C | IC50 ([1]; Homo sapiens): 18.3 ± 1.11 µM | IC50 ([2]; Homo sapiens, Hep3B): 11.2 ± 0.52 µM | IC50 ([3]; Homo sapiens, MCF7, 48 h): 26.8 ± 1.24 µM

CC1COc2c(N3CCN(C)CC3)c(F)cc3c(=O)c(C(=O)NN4C(=O)c5ccccc5C4=O)cn1c23 (centres unmarked) [Compound 9, 9-Fluoro-3-methyl-10-(4-methylpiperazin-1-yl)-7-oxo-N-(1,3-dioxoisoindolin-2-yl)-2,3-dihydro-7H-[1,4]oxazino[2,3,4-ij]quinoline-6-carboxamide]
melting point: 138 to 140 °C | IC50 ([1]; Homo sapiens): 23.4 ± 1.41 µM | IC50 ([2]; Homo sapiens, Hep3B): 42.2 ± 1.96 µM | IC50 ([3]; Homo sapiens, MCF7, 48 h): 19.3 ± 0.9 µM

CC1COc2c(N3CCN(C)CC3)c(F)cc3c(=O)c(C(=O)N4CCCCC4)cn1c23 (centres unmarked) [Compound 13a, 9-Fluoro-3-methyl-10-(4-methylpiperazin-1-yl)-6-((piperidin-1-yl)carbonyl)-2,3-dihydro-7H-[1,4]oxazino[2,3,4-ij]quinolin-7-one]
melting point: 238 to 240 °C | IC50 at 48 h (in vitro): 29.9 ± 1.68 µM | IC50 ([1]; Homo sapiens): 3.12 ± 0.19 µM | Topo2β% inhibition [4]: 68.77% | IC50 ([2]; Homo sapiens, Hep3B): 3.46 ± 0.16 µM | IC50 ([3]; Homo sapiens, MCF7, 48 h): 12.1 ± 0.56 µM | Topo2β% inhibition [5]: 69.38%

2-[(9-Fluoro-3-methyl-10-(4-methylpiperazin-1-yl)-7-oxo-2,3-dihydro-7H-[1,4]oxazino[2,3,4-ij]quinoline-6-carbonyl)]-N-(1-(4-methoxyphenyl)ethylidene)hydrazine-1-carbothioamide [Compound 12a]
IC50 ([1]; L-SR cell line, MTT assay): 23.8 ± 1.43 µM | IC50 ([2]; Hep3B cell line, MTT assay): 23.6 ± 1.09 µM | IC50 [3, 6]: 45.4 ± 2.1 µM

CC1COc2c(N3CCN(C)CC3)c(F)cc3c(=O)c(C(=O)NN=C4C(=O)Nc5ccc(Br)cc54)cn1c23 (centres unmarked) [Compound 4b, N′-(5-Bromo-2-oxoindolin-3-ylidene)-9-fluoro-3-methyl-10-(4-methylpiperazin-1-yl)-7-oxo-2,3-dihydro-7H-[1,4]oxazino[2,3,4-ij]quinoline-6-carbohydrazide]
melting point: > 300 °C | IC50 ([1]; Homo sapiens): 10.9 ± 0.66 µM | IC50 ([2]; Homo sapiens, Hep3B): 8.79 ± 0.41 µM | IC50 ([3]; Homo sapiens, MCF7, 48 h): 5.59 ± 0.26 µM

CC1COc2c(N3CCN(C)CC3)c(F)cc3c(=O)c(C(=O)NN=C4C(=O)Nc5ccccc54)cn1c23 (centres unmarked) [Compound 4a, 9-Fluoro-3-methyl-10-(4-methylpiperazin-1-yl)-7-oxo-N′-(2-oxoindolin-3-ylidene)-2,3-dihydro-7H-[1,4]oxazino[2,3,4-ij]quinoline-6-carbohydrazide]
melting point: > 300 °C | IC50 ([1]; Homo sapiens): 49.6 ± 2.99 µM | IC50 ([2]; Homo sapiens, Hep3B): 18.7 ± 0.87 µM | IC50 ([3]; Homo sapiens, MCF7, 48 h): 39.1 ± 1.81 µM

N-(4-Chlorobenzylidene)-2-[(9-fluoro-3-methyl-10-(4-methylpiperazin-1-yl)-7-oxo-2,3-dihydro-7H-[1,4]oxazino[2,3,4-ij]quinoline-6-carbonyl)]hydrazine-1-carbothioamide [Compound 11a]
IC50 ([1]; L-SR cell line, MTT assay): 19.9 ± 1.2 µM | IC50 ([2]; Hep3B cell line, MTT assay): 80.2 ± 3.71 µM | IC50 [3, 6]: 54.5 ± 2.52 µM

CC1COc2c(N3CCN(C)CC3)c(F)cc3c(=O)c(C(=O)NN=C4C(=O)Nc5ccc(Cl)cc54)cn1c23 (centres unmarked) [Compound 4c, N′-(5-Chloro-2-oxoindolin-3-ylidene)-9-fluoro-3-methyl-10-(4 methylpiperazin-1-yl)-7-oxo-2,3-dihydro-7H-[1,4]oxazino[2,3,4-ij]quinoline-6-carbohydrazide]
melting point: > 300 °C | IC50 ([1]; Homo sapiens): 4.32 ± 0.26 µM | IC50 ([2]; Homo sapiens, Hep3B): 36.3 ± 1.68 µM | IC50 ([3]; Homo sapiens, MCF7, 48 h): 15.8 ± 0.76 µM

CC1COc2c(N3CCN(C)CC3)c(F)cc3c(=O)c(C(=O)NN=Cc4ccc(Cl)cc4)cn1c23 (centres unmarked) [Compound 3a, N′-(4-Chlorobenzylidene)-9-fluoro-3-methyl-10-(4-methylpiperazin-1-yl)-7-oxo-2,3-dihydro-7H-[1,4]oxazino[2,3,4-ij]quinoline-6-carbohydrazide]
melting point: 260 to 262 °C | IC50 ([1]; Homo sapiens): 2.75 ± 0.07 µM | IC50 ([2]; Homo sapiens, Hep3B): 24.7 ± 0.81 µM | IC50 ([3]; Homo sapiens, MCF7, 48 h): 24.8 ± 1.61 µM

N-(1-(3,4-Dimethoxyphenyl)ethylidene)-2-[(9-fluoro-3-methyl-10-(4-methylpiperazin-1-yl)-7-oxo-2,3-dihydro-7H-[1,4]oxazino[2,3,4-ij]quinoline-6-carbonyl)]hydrazine-1-carbothioamide [Compound 12b]
IC50 ([1]; L-SR cell line, MTT assay): 34.2 ± 2.06 µM | IC50 ([2]; Hep3B cell line, MTT assay): 17.6 ± 0.81 µM | IC50 [3, 6]: 5.21 ± 0.24 µM

CC1COc2c(N3CCN(C)CC3)c(F)cc3c(=O)c(C(=O)N4NC(=O)CC4=O)cn1c23 (centres unmarked) [Compound 8, 9-Fluoro-6-((3,5-dioxopyrazolidine-1-yl)carbonyl)-3-methyl-10-(4-methylpiperazin-1-yl)-2,3-dihydro-7H-[1,4]oxazino[2,3,4-ij]quinolin-7-one]
melting point: 228 to 230 °C | IC50 ([1]; Homo sapiens): 5.49 ± 0.33 µM | IC50 ([2]; Homo sapiens, Hep3B): 7.69 ± 0.36 µM | IC50 ([3]; Homo sapiens, MCF7, 48 h): 3.51 ± 0.16 µM

2-[(9-Fluoro-3-methyl-10-(4-methylpiperazin-1-yl)-7-oxo-2,3-dihydro-7H-[1,4]oxazino[2,3,4-ij]quinoline-6-carbonyl)]N-(4-methoxybenzylidene)hydrazine-1-carbothioamide [Compound 11b]
IC50 ([1]; L-SR cell line, MTT assay): 40.3 ± 2.43 µM | IC50 ([2]; Hep3B cell line, MTT assay): 14.6 ± 0.67 µM | IC50 [3, 6]: 15.5 ± 0.72 µM

CC1COc2c(N3CCN(C)CC3)c(F)cc3c(=O)c(C(=O)NNC(N)=S)cn1c23 (centres unmarked) [Compound 10, 2-[(9-Fluoro-3-methyl-10-(4-methylpiperazin-1-yl)-7-oxo-2,3-dihydro-7H-[1,4]oxazino[2,3,4-ij]quinoline-6-carbonyl)]hydrazin-1-carbothioamide]
melting point: > 300 °C | IC50 ([1]; Homo sapiens): 66 ± 3.98 µM | IC50 ([2]; Homo sapiens, Hep3B): 37.9 ± 1.76 µM | IC50 ([3]; Homo sapiens, MCF7, 48 h): 95.4 ± 4.42 µM

CC1COc2c(N3CCN(C)CC3)c(F)cc3c(=O)c(C(=O)NN=Cc4ccc(F)cc4)cn1c23 (centres unmarked) [Compound 3b, 9-Fluoro-N′-(4-fluorobenzylidene)-3-methyl-10-(4-methylpiperazin-1-yl)-7-oxo-2,3-dihydro-7H-[1,4]oxazino[2,3,4-ij]quinoline-6-carbohydrazide]
melting point: 266 to 268 °C | IC50 ([1]; Homo sapiens): 5.64 ± 0.27 µM | IC50 ([2]; Homo sapiens, Hep3B): 12 ± 0.39 µM | IC50 ([3]; Homo sapiens, MCF7, 48 h): 63 ± 2.8 µM

CC1COc2c(N3CCN(C)CC3)c(F)cc3c(=O)c(C(=O)N4CCN(C)CC4)cn1c23 (centres unmarked) [Compound 13c, 9-Fluoro-3-methyl-10-(4-methylpiperazin-1-yl)-6-((4-methylpiperazin-1-yl)carbonyl)-2,3-dihydro-7H-[1,4]oxazino[2,3,4-ij]quinolin-7-one]
melting point: 239 to 241 °C | IC50 at 48 h (in vitro): 24 ± 1.35 µM | IC50 ([1]; Homo sapiens): 13.6 ± 0.82 µM | Topo2β% inhibition [4]: 70.93% | IC50 ([2]; Homo sapiens, Hep3B): 1.04 ± 0.05 µM | IC50 ([3]; Homo sapiens, MCF7, 48 h): 7.26 ± 0.34 µM

CC1COc2c(N3CCN(C)CC3)c(F)cc3c(=O)c(C(=O)N4CCN(c5ccccc5)CC4)cn1c23 (centres unmarked) [Compound 13d, 9-Fluoro-3-methyl-10-(4-methylpiperazin-1-yl)-6-((4-phenylpiperazin-1-yl)carbonyl)-2,3-dihydro-7H-[1,4]oxazino[2,3,4-ij]quinolin-7-one]
melting point: 246 to 248 °C | IC50 ([1]; Homo sapiens): 15.1 ± 0.91 µM | IC50 ([2]; Homo sapiens, Hep3B): 24.5 ± 1.14 µM | IC50 ([3]; Homo sapiens, MCF7, 48 h): 9.59 ± 0.44 µM
